# Source: patent publication US20090317383A1, “CANCER TREATMENT METHOD” (priority 2004, published 2009)
# Columns and labels:
# EGFR and erbB2 kinases = conditions: Rusnak et al., 2001b; Xia et al., 2002; cited from earlier work
# [1] = test system: tumor cells overexpressing EGFR or erbB2; conditions: Rusnak et al., 2001b; Xia et al., 2002; cited from earlier work
# [2] = test system: MCF-7 human breast cancer cells; experiment: Cell growth, MTT tetrazolium dye assay; type: cell-based; conditions: 1-10 uM
# Experimental: (§1) The effect of a combination of lapatanib with a Bcl-2 inhibitor (HA14-1) on the growth of MCF-7 human breast cancer cells, a HER-2/neu transfected MCF-7 cell line and a tamoxifen (TAM) resistant MCF-7 cell line was examined. Cell growth was determined using the MTT tetrazolium dye assay. Cells were dosed with Lapatinib and HA14-1 as monotherapies.
# [3] = test system: HER-2/neu transfected MCF-7 cell line; experiment: Cell growth, MTT tetrazolium dye assay; type: cell-based, human; conditions: 1-10 uM
# Experimental: as §1
# [4] = test system: tamoxifen (TAM) resistant MCF-7 cell line; experiment: Cell growth, MTT tetrazolium dye assay; type: cell-based, human; conditions: 1-10 uM
# Experimental: as §1
# BT474 tumors = experiment: BT474 vs. Lapatinib and Docetaxel Combination (mice with BT474 tumors); type: in vivo
# Experimental: Mice with BT474 tumors were administered lapatinib alone (200 and 100 mg/kg; SID×21 Days, or 2 days and 1 day before docetaxel) and in combination with docetaxel (25 and 50 mg/kg IP, once weekly×3 weeks).
# In the first experiment there were no deaths, and in the second experiment there was one death in a group of eight mice receiving docetaxel (25 mg/kg) and lapatinib (200 mg/kg×21 days). All surviving mice rapidly regained body weight when dosing was completed. The treatment groups and results follow.
compound,measurement,setting,value
"CS(=O)(=O)CCNCc1ccc(-c2ccc3ncnc(Nc4ccc(OCc5cccc(F)c5)c(Cl)c4)c3c2)o1 [GW572016, N-{3-chloro-4-[(3-fluorobenzyl)oxy]phenyl}-6-[5-({[2-(methanesulphonyl)ethyl]amino}methyl)-2-furyl]-4-quinazolinamine]",Kinase inhibition in human xenograft studies,EGFR and erbB2 kinases,dose-dependent kinase inhibition
same,Selectivity of tumor cell inhibition,[1],selectively inhibits tumor cells overexpressing EGFR or erbB2
"CCOC(=O)C1=C(N)Oc2ccc(Br)cc2C1C(C#N)C(=O)OCC (stereo not drawn) [HA14-1, ethyl [2-amino-6-bromo-4-(1-cyano-2-ethoxy-2oxoethyl)]4H-chromene-3-carboxylate, reference compound]","Cell growth inhibition, monotherapy",[2],dose-dependent growth inhibition
same,"Cell growth inhibition, monotherapy",[3],dose-dependent growth inhibition
same,"Cell growth inhibition, monotherapy",[4],dose-dependent growth inhibition
"CC(=O)O[C@@]12CO[C@@H]1C[C@H](O)[C@@]1(C)C(=O)[C@H](O)C3=C(C)[C@@H](OC(=O)[C@H](O)[C@@H](NC(=O)OC(C)(C)C)c4ccccc4)C[C@@](O)([C@@H](OC(=O)c4ccccc4)[C@H]21)C3(C)C [docetaxel, (2R,3S)-N-carboxy-3-phenylisoserine,N-tert-butyl ester, 13-ester with 5β-20-epoxy-1,2α,4,7β,10β,13α-hexahydroxytax-11-en-9-one 4-acetate 2-benzoate, trihydrate]",Body weight,"BT474 tumors; 25 and 50 mg/kg, after 3 weekly doses, both experiments",caused weight loss
same,% Inhibition,"BT474 tumors; Tax-25 (25 mg/kg IP), Days 3, 10, 17",77%
same,% Inhibition,"BT474 tumors; Tax-50 (50 mg/kg IP), Days 3, 10, 17",98%
same,Efficacy against BT474 tumors (in words),"BT474 tumors; docetaxel at 50 mg/kg, both experiments",highly effective
"CS(=O)(=O)CCNCc1ccc(-c2ccc3ncnc(Nc4ccc(OCc5cccc(F)c5)c(Cl)c4)c3c2)o1.Cc1ccc(S(=O)(=O)O)cc1 [lapatinib, N-{3-Chloro-4-[(3-fluorobenzyl)oxy]phenyl}-6-[5-({[2-(methanesulphonyl)ethyl]amino}methyl)-2-furyl]-4-quinazolinamine ditosylate monhydrate]",% Inhibition,"BT474 tumors; GW016-100 (100 mg/kg), sid × 21 days",79%
same,% Inhibition,"BT474 tumors; GW016-200 (200 mg/kg), sid × 21 Days",102%
same,% Inhibition,"BT474 tumors; GW016-200, twice weekly on consecutive days × 3 weeks",58%
same,"Cell growth inhibition, monotherapy",[2],dose-dependent growth inhibition
same,"Cell growth inhibition, monotherapy",[3],dose-dependent growth inhibition
same,"Cell growth inhibition, monotherapy",[4],dose-dependent growth inhibition
